Earlier results in patent US20070253995A1, “Drug Delivery Methods and Devices for Treating Stress Urinary Incontinence” (Medtronic, Inc., priority 2006, published 2007).

System: women with stress urinary incontinence
Details: oral formulation

In the case of `CNCC[C@H](Oc1cccc2ccccc12)c1cccs1` [duloxetine], the “time for side effects to disappear after therapy initiation” value is given as 1 to 4 weeks, the “efficacy in treating stress urinary incontinence” value (Phase III clinical trial, women) is given as “effective” and the “side effects (mostly centrally mediated: nausea, headache, insomnia, dry mouth, dizziness, fatigue)” value (some patients) is given as “significant side effects in some patients”.
